Test results reported in patent US20050181988A1, “Echinocandin cyclic peptide derivatives” (priority 2002, published 2005).
Read-outs that look alike come from different tables or passages of the source.

Tested on: Candida albicans FP-633
Experiment: In vitro antimicrobial activity: MICs in mouse serum by the microdilution method
Type: cell-based
Protocol: In vitro antimicrobial activity of the object compound of Example 23, 46, 58 and 63 disclosed later was determined by MICS in mouse serum as described below.
The MICs in mouse serum were determined by the microdilution method using ICR mouse serum buffered with 20 mM HEPES buffer (pH 7.3) as a test medium. Inoculum suspension of 10^6 cells/ml were prepared by a hemocytometric procedure and diluted to obtain an inoculum size of approximately 1.0×10^3 cells/ml. Microplates were incubated at 37° C. for 24 hours in 5% CO2. The MICs was defined as the lowest concentrations at which no visible growth was observed.

MIC (FP633, microdilution in ICR mouse serum buffered with 20 mM HEPES (pH 7.3), inoculum approx. 1.0×10^3 cells/ml, 37° C., 24 hours, 5% CO2, lowest concentration with no visible growth, read-out: MIC (μg/ml), Candida albicans FP-633)	Structure (SMILES)	MIC (FP633, 24 h, pH 7.3, read-out: MIC (μg/ml), Candida albicans FP-633)
	CCOCCOc1ccc(-c2ccc(-c3nnc(-c4ccc(C(=O)N[C@H]5C[C@@H](O)CNC(=O)[C@@H]6[C@@H](O)[C@@H](C)CN6C(=O)[C@H]([C@H](O)CCN)NC(=O)[C@H]([C@H](O)Cc6ccc(O)c(OCCCN)c6)NC(=O)[C@@H]6C[C@@H](O)CN6C(=O)[C@H]([C@@H](C)O)NC5=O)cc4)s3)cc2)cc1 [Example 46]	< 0.2 µg/mL
< 0.2 µg/mL	C[C@@H](O)[C@@H]1NC(=O)[C@@H](NC(=O)c2ccc(-c3nnc(-c4ccc(N5CCN([C@H]6CC[C@@H](C)CC6)CC5)nc4)s3)cc2)C[C@@H](O)CNC(=O)[C@@H]2[C@@H](O)[C@@H](C)CN2C(=O)[C@H]([C@H](O)CCN)NC(=O)[C@H]([C@H](O)Cc2ccc(O)c(OCCN)c2)NC(=O)[C@@H]2C[C@@H](O)CN2C1=O [Example 58]	
